Reference: patent US20050130909A1 (priority 2002, published 2005)
Values joined by “and” are separate entries in the source; they are usually repeats but may differ in a detail not shown here. Identical values can stand only once. Like-named read-outs stand apart in the source and are kept apart here.

How the values were obtained:
[1] = test system: Methicillin-sensitive S. aureus; experiment: Phase II SSTI trial: microbiological response by pathogen; assay type: in vivo, human; settings: MITT at FU
Method: (§1) This randomized, controlled study evaluated the safety and efficacy of two dose regimens of dalbavancin.
(§2) There were 62 patients randomized into the study; all received at least one dose of study medication. Four study populations were evaluated for safety and efficacy and were defined as follows: The intent-to-treat (ITT) population included all patients who received at least one dose of study drug (all randomized study subjects).
(§3) Microbiological outcome, a secondary efficacy variable, was assessed in the subpopulation of patients who had microbiologically documented SSTI (i.e., at least one identified baseline pathogen). A microbiologic response was assessed for each Gram-positive pathogen identified at baseline (i.e., eradication, presumed eradication, persistence, presumed persistence). For patients for whom follow-up cultures were not performed, the microbiologic responses for baseline pathogens were presumed on the basis of the clinical response. Microbiologic response by patient at the EOT and FU visits was graded as success (i.e., all Gram-positive organisms eradicated or presumed eradicated) or failure (i.e., at least one Gram-positive organism persisted or presumed to have persisted, multiple pathogens with partial eradication). At both the EOT and FU visits, colonization and superinfection were assessed. At the FU visit, a patient's bacteriological response could also include recurrence.

[2] = test system: Miscellaneous streptococcus species; experiment: as above; assay type: in vivo, human; settings: MITT at FU
Method: as §1, §2, §3

[3] = test system: S. aureus; experiment: as above; assay type: in vivo, human; settings: for Success rate by pathogen: All S. aureus: MITT at FU; for S. aureus eradication rate: microbiologically-evaluable population at FU
Method: as §1, §2, §3

[4] = test system: Group B streptococcus; experiment: Dalbavancin MIC of baseline pathogens; assay type: cell-based; settings: baseline isolates, MITT
Excerpt: (§4) The most common pathogen was S. aureus.

[5] = test system: Miscellaneous Streptococcus and nontypeable strains; experiment: Dalbavancin MIC of baseline pathogens; assay type: cell-based; settings: baseline isolates, MITT
Excerpt: as §4

[6] = test system: S. aureus; experiment: Dalbavancin MIC of baseline pathogens; assay type: cell-based; settings: baseline isolates, MITT
Excerpt: as §4

[7] = test system: Streptococcus pyogenes; experiment: Dalbavancin MIC of baseline pathogens; assay type: cell-based; settings: baseline isolates, MITT
Excerpt: as §4

[8] = test system: Gram-positive isolates, including MRSA; experiment: Dalbavancin MIC of trial isolates; assay type: cell-based; settings: isolates that persisted after treatment
[9] = Pharmacokinetics and renal excretion in healthy subjects; assay type: in vivo, human
Method: Blood samples were drawn into heparinized tubes and centrifuged. Plasma was separated and stored frozen at −20° C. until time of assay. Plasma and urine samples were assayed for dalbavancin using validated LC/MS/MS methods. […] The peak concentration (Cmax) values were obtained directly from the observed data. The area under the plasma concentration-time curve (AUC) was calculated using the linear trapezoidal rule. Clearance (CL) was computed as dose/AUC. The elimination half life (t1/2) was estimated by linear regression of the log-linear portion of the log concentration versus time curve. Estimates of the volume of distribution (VZ) was calculated using the regression parameters, while the volume of distribution at steady state (Vss) was calculated from the area under the first moment curve (AUMC) multiplied by the dose and divided by AUC. The cumulative amount of dalbavancin excreted in urine was determined as the integrand of the urine excretion rate (AURC). CLR, or renal clearance, was calculated as the ratio: CLR=AURC/AUC.

[10] = target: rat albumin (Rattus norvegicus, UniProt P02770); experiment: Protein binding by ITC; settings: pH 7.4
Chain of rat albumin (P02770 25-608): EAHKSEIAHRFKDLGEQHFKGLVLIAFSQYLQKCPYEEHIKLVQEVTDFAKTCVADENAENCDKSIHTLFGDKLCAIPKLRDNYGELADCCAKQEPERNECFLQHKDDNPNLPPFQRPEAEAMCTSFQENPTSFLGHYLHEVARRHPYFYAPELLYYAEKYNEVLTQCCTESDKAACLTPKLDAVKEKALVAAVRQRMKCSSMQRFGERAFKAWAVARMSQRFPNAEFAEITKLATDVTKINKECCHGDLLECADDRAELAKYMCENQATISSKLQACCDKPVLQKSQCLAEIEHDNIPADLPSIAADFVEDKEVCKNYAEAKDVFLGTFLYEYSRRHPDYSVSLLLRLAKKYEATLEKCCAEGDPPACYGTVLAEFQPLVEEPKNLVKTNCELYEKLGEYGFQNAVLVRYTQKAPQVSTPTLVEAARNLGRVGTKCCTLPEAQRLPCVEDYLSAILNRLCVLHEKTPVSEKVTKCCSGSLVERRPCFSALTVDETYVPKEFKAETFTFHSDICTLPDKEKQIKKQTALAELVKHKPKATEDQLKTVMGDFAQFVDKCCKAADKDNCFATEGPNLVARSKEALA

[11] = target: dog albumin (Canis lupus familiaris, UniProt P49822); experiment: Protein binding by ITC; settings: pH 7.4
Chain of dog albumin (P49822 25-608): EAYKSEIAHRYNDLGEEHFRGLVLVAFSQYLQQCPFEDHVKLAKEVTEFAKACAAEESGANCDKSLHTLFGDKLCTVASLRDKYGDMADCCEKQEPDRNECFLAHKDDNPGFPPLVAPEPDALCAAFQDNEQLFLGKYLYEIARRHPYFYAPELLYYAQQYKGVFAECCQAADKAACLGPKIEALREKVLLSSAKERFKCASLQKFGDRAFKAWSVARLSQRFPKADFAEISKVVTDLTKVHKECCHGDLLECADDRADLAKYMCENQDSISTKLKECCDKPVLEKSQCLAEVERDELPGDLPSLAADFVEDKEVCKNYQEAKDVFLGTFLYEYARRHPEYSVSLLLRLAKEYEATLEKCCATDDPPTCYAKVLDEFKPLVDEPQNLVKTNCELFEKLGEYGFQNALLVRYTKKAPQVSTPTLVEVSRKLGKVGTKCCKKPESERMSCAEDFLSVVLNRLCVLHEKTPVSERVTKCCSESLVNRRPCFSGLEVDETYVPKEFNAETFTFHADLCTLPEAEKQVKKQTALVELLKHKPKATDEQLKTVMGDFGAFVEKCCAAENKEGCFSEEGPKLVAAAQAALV

[12] = test system: human α-glycoprotein; experiment: Protein binding by ITC; settings: for Apparent binding affinity Ka: pH 7.4; for Calculated percent Binding to Human α-glycoprotein: protein […]10^−5 M assumed
[13] = Stability of dalbavancin in plasma; assay type: in vitro ADME, human; settings: 1.5 and 90 μg/ml
[14] = test system: N,N′-diacetyl-Lys-D-Ala-D-Ala; experiment: ITC of binding to tri-peptide cell-wall analog, with and without HSA
Method: Peptide concentrations were determined by weight.
Trans. R. Soc. Lond. Ser. A-Math. Phys. Eng. […] Wiley, (1998) p 103-111; and Cooper, A., Curr. Opin. Chem. Biol. (1999) 3, 557-563.

[15] = test system: Lys-D-Ala-D-Lactate; experiment: ITC, preliminary experiments; assay type: binding; settings: absence of serum proteins
[16] = test system: streptococci; experiment: In vitro antibacterial activity; assay type: cell-based; settings: including penicillin-resistant strains

CN[C@H]1C(=O)N[C@@H]2Cc3ccc(cc3)Oc3cc4cc(c3O[C@@H]3O[C@H](C(=O)O)[C@@H](O)[C@H](O)[C@H]3NC(=O)CCCCCCCCC(C)C)Oc3ccc(cc3Cl)[C@@H](O)[C@@H]3NC(=O)[C@H](NC(=O)[C@@H]4NC(=O)[C@@H](NC2=O)c2cc(cc(O)c2Cl)Oc2cc1ccc2O)c1ccc(O)c(c1)-c1c(O[C@H]2O[C@H](CO)[C@@H](O)[C@H](O)[C@@H]2O)cc(O)cc1[C@@H](C(=O)NCCCN(C)C)NC3=O [Dalbavancin]
Success rate by pathogen: Methicillin-sensitive ([1]; single-dose 1100 mg): 2/7 (29%) | Success rate by pathogen: Methicillin-sensitive ([1]; two-dose 1000/500 mg): 5/6 (83%) | Success rate by pathogen: Miscellaneous streptococcus species ([2]; single-dose 1100 mg): 2/3 (67%) | Success rate by pathogen: Miscellaneous streptococcus species ([2]; two-dose 1000/500 mg): 4/4 (100%) | Success rate by pathogen: All S. aureus ([3]; single-dose 1100 mg): 5/13 (38%) | Success rate by pathogen: All S. aureus ([3]; two-dose 1000/500 mg): 9/11 (82%) | S. aureus eradication rate ([3]; single-dose dalbavancin): 50% | S. aureus eradication rate ([3]; two-dose dalbavancin): 90% | Dalbavancin MIC ([4]; standard of care arm): 2 (0.016) mg/L | Dalbavancin MIC ([4]; two-dose arm): 2 (0.016) mg/L | Dalbavancin MIC ([5]; single-dose arm): 3 (0.016) mg/L | Dalbavancin MIC ([5]; standard of care arm): 4 (0.016) mg/L | Dalbavancin MIC ([5]; two-dose arm): 2 (0.016) mg/L | Dalbavancin MIC ([6]; single-dose arm (N = 14)): 13 (0.12) mg/L | Dalbavancin MIC range ([6]; standard of care arm (N = 14)): 10 (0.016-0.25) mg/L | Dalbavancin MIC ([6]; two-dose arm (N = 13)): 11 (0.12) mg/L | Dalbavancin MIC ([7]; standard of care arm): 1 (0.016) mg/L | Dalbavancin MIC ([7]; two-dose arm): 1 (0.016) mg/L | Change in dalbavancin MIC of isolates that persisted [8]: no change in dalbavancin MIC | AURC (cumulative amount excreted in urine) ([9]; Mean, single 1000 mg IV): 419 mg | CL ([9]; Mean, single 1000 mg IV): 0.0431 ± 0.0074 L/h | CLR ([9]; Mean, single 1000 mg IV): 0.018 L/h | Vz ([9]; Mean, single 1000 mg IV): 16.0 L | CLR ([9]; Min, single 1000 mg IV): 0.0130 L/h | Peak concentration of dalbavancin in man ([9]; conversion of approximately 300 mg/L): 165 µM | Peak plasma concentrations ([9]; immediately following end of infusion, single 1000 mg IV): approximately 300 mg/L | Plasma concentrations maintained for at least seven days ([9]; single intravenous infusion of 1000 mg): above 45 mg/l | Apparent binding affinity Ka ([10]; 25° C.): 3.1 (±0.5) ×10^5 M^−1 | Apparent binding affinity Ka ([10]; 37° C.): 2.8 (±1.8) ×10^5 M^−1 | Apparent binding affinity Ka ([11]; 25° C.): 0.62 (±0.09) ×10^5 M^−1 | Apparent binding affinity Ka ([11]; 37° C.): 0.50 (±0.13) ×10^5 M^−1 | Apparent binding affinity Ka ([12]; 25° C.): 1.84 (±0.36) ×10^5 M^−1 | Apparent binding affinity Ka ([12]; 37° C.): 4.8 (±2.3) ×10^5 M^−1 | Calculated percent Binding to Human α-glycoprotein ([12]; antibiotic 1 μM): 73.0% | Calculated percent Binding to Human α-glycoprotein ([12]; antibiotic 10 μM): 68.2% | Calculated percent Binding to Human α-glycoprotein ([12]; antibiotic 100 μM): 26.2% | Calculated percent Binding to Human α-glycoprotein ([12]; antibiotic 165 μM): 16.9% | Calculated percent Binding to Human α-glycoprotein ([12]; antibiotic 250 μM): 11.4% | Calculated percent Binding to Human α-glycoprotein ([12]; antibiotic 500 μM): 5.9% | Stability in processed plasma samples ([13]; 24 hours at room temperature): stable after 24 hours at room temperature | Stability in human plasma, freeze-thaw ([13]; three cycles of freeze-thaw): stable after three cycles of freeze-thaw treatment | Kass ([14]; 10 ° C., [HSA] 0 μM): 920000 M⁻¹ and 685000 M⁻¹ and 624000 M⁻¹ and 670000 M⁻¹ | Kd ([14]; 10 ° C., [HSA] 0 μM, read-out: Kdiss): 1.09 µM and 1.6 µM and 1.49 µM | Kd ([14]; 10° C., absence of HSA, read-out: Average Kdiss): ~1.4 µM | Weakening of binding affinity at HSA plateau relative to absence of HSA ([14]; 25° C.): 10-12 × | Kass ([14]; 25 ° C., [HSA] 0 μM): 313000 M⁻¹ and 330000 M⁻¹ and 320000 M⁻¹ and 280000 M⁻¹ and 303000 M⁻¹ and 319000 M⁻¹ and 393000 M⁻¹ | Kd ([14]; 25 ° C., [HSA] 0 μM, read-out: Kdiss): 3.57 µM and 3.3 µM and 2.54 µM | Kd ([14]; 25° C., absence of HSA (free dalbavancin), read-out: Average Kdiss): ~3.1 µM | Kass ([14]; 25 ° C., with HSA 34.2 μM): 35000 M⁻¹ | Kd ([14]; 25 ° C., with HSA 34.2 μM, read-out: Kdiss): 28.6 µM | Kd ([14]; 37° C., absence of HSA, read-out: Average Kdiss): ~8.4 µM | Effect of HSA on solubility of dalbavancin ([14]; aqueous buffer pH 7.4 containing HSA): HSA increased the solubility of dalbavancin | Kd ([14]; read-out: Apparent Kdiss, plateau level at high concentrations of HSA (dalbavancin bound to HSA), 25° C., HSA above 35 μM up to 600 μM, FIG. 11): ~35 µM | Binding to Lys-D-Ala-D-Lactate [15]: no evidence of binding | Activity relative to teicoplanin or vancomycin [16]: better activity against streptococci, including penicillin-resistant strains, than teicoplanin or vancomycin
